Reference: patent publication US7473681B2, “Kahalalide F” (Pharma Mar, S.A., priority 2000, dated 2009)
Like-named read-outs stand apart in the source and are kept apart here.

Columns and labels:
[1] = Solubility of KF and recovery after reconstitution and dilution; type: physicochemical; details: 5/5/90% v/v/v CEW, diluted with 0.9% NaCl down to 0.5 μg/mL
Experimental: Methods. Solubility and stability of KF were studied as a function of polysorbate 80 (P80; 0.1-0.5% w/v) and citric acid monohydrate (CA; 5-15 mM) concentrations using an experimental design approach. Stabilities of KF lyophilized products containing crystalline (mannitol) or amorphous (sucrose) bulking agents were studied at +5° C. and +30° C. in the dark. Lyophilized products were characterized by infrared (IR) spectroscopy and differential scanning calorimetry. Recovery studies after reconstitution of KP lyophilized product and further dilution in infusion fluid were carried out to select an optimal reconstitution vehicle. Results. […] A combination of 0.1% w/v P80 and 5 mM CA was selected for further investigation. […] The glass transition temperature of the sucrose-based product was determined to be +46° C. The amorphous state of the product was confirmed by IR analysis. […] A stable lyophilized formulation is presented containing 100 μg of kahalalide F, 100 mg sucrose, 2.1 mg CA and 2 mg P80 to be reconstituted with a vehicle composed of 5/5/90% v/v/v CEW, and to be further dilute using normal saline.

[2] = CellTiter96 (MTS) in vitro cytotoxicity assay; details: H9 c2 (2-1) cardiac cells
[3] = system: skeletal muscle (L8) cells; experiment: CellTiter96 (MTS) in vitro cytotoxicity assay; type: cell-based
[4] = CellTiter96 (MTS) in vitro cytotoxicity assay; type: cell-based; details: mouse, AML-12 liver cells; read-out: LD50 (the source's name)
[5] = CellTiter96 (MTS) in vitro cytotoxicity assay; type: cell-based; details: rat, NRX-52E kidney cells; read-out: LD50 (the source's name)
[6] = CellTiter96 (MTS) in vitro cytotoxicity assay; type: cell-based; details: mouse, FDC-P1 myelogenous stem cells; FDC-Pl myelogenous stem cells; read-out: LD50 (the source's name)
[7] = system: astrocytes (glial fibrilary acidic protein positive); experiment: Fluorescent viability stain with immunocytochemistry; type: cell-based; details: ~10 μM
Experimental: (§1) We have also found this drug to be neuxotoxic at high concentrations in our assay system and which correlates well with animal data showing neurotoxicity above the maximum tolerated dose (MTD). Using a fluorescent viability stain (ethidium homodimer and calccin AM, Molecular Probes) coupled with immunocytochemistry, we determined that ˜10 μM Kahalalide is toxic to central nervous system (CNS) neurons (neurofilament positive) but spares astrocytes (glial fibrilary acidic protein positive) as well as sensory (substance P expressing) and motor (choline acetyl transferase positive) neurons in the spinal cord. We conclude that Kahalalide F is a promising drug for the treatment of prostate cancer as its neurotoxicity is relatively mild at or below MTD levels.

[8] = system: central nervous system (CNS) neurons (neurofilament positive); experiment: as above; type: cell-based; details: ethidium homodimer and calcein AM stain
Experimental: as §1

[9] = system: motor (choline acetyl transferase positive) neurons in the spinal cord; experiment: as above; type: cell-based; details: ~10 μM
Experimental: as §1

[10] = system: sensory (substance P expressing) neurons in the spinal cord; experiment: as above; type: cell-based; details: ~10 μM
Experimental: as §1

[11] = Rodent maximum tolerated dose; type: in vivo
PC-3 = experiment: In vitro antiproliferative study; type: cell-based; details: PC-3 prostate tumor
DU-145 = experiment: In vitro antiproliferative study; type: cell-based; details: DU-145 prostate tumor
T-10 = experiment: In vitro antiproliferative study; type: cell-based; details: T-10 prostate tumor
DHM = experiment: In vitro antiproliferative study; type: cell-based; details: DHM prostate tumor
RB = experiment: In vitro antiproliferative study; type: cell-based; details: RB prostate tumor
SK-BR-3 = experiment: In vitro antiproliferative study; type: cell-based; details: SK-BR-3 neu+ breast tumor cells
BT-474 = experiment: In vitro antiproliferative study; type: cell-based; details: BT-474 neu+ breast tumor cells
BE(2)C = experiment: In vitro antiproliferative study; type: cell-based; details: BE(2)C neuroblastoma cell line
[12] = In vitro exposure studies; type: cell-based; details: exposure of 1 hour as potent as 48 hours, in most cases
[13] = system: fresh human tumor specimens; experiment: Human Tumor Cloning Assay; type: cell-based; details: 14-day continuous exposure, 31 evaluable specimens
Experimental: In the present study, fresh human tumor specimens were treated with KF to determine activity, utilizing the Human Tumor Cloning Assay. One hundred and four patient tumor specimens were treated with KF under 14-day continuous exposure at 0.01, 0.1, and 1.0 μM. Specimens were incubated in a 2-layer soft-agar cloning system at 37° C. and were removed on Day 14 for colony count. Colonies formed in the treated plates were compared to the number of colonies formed in the untreated control plates, and the percent colonies surviving at each concentration was calculated. The positive control plates contained the cell poison orthosodium vanadate (200 μg/ml). Among these specimens, approximately 30% were evaluable with appropriate negative and positive controls.

[14] = Phase I study: plasma pharmacokinetics; type: in vivo, human
Experimental: Bioanalysis of KF was performed by LC-MS/MS.

[15] = system: patients with advanced or metastatic androgen refractory prostate cancer; experiment: Phase I study: toxicity and anti-tumor activity; type: in vivo, human
[16] = system: hepatocellular carcinoma cells; experiment: Cytotoxicity to carcinoma cells; type: cell-based
prostate carcinoma cells = experiment: Cytotoxicity to carcinoma cells; type: cell-based
[17] = glass infusion containers, refrigerated (+2-8° C., in the dark)
Description: Prior to in i.v. administration it is reconstituted with a solution composed of Cremophor EL, ethanol absolute and Water for Injection (CEW, 5/5/90% v/w) with further dilution in 0.9% w/v sodium chloride for infusion.

[18] = system: dedifferentiated and mesenchymal chodrosarcomas, CHSAs

Compound: C/C=C1\NC(=O)[C@H](Cc2ccccc2)NC(=O)[C@@H](C(C)C)NC(=O)[C@@H](C(C)CC)NC(=O)[C@H](NC(=O)C(NC(=O)[C@H](CCCN)NC(=O)[C@H]2CCCN2C(=O)[C@H](NC(=O)[C@@H](NC(=O)[C@@H](NC(=O)[C@H](NC(=O)CCCC(C)C)C(C)C)C(C)O)C(C)C)C(C)C)C(C)CC)C(C)OC(=O)[C@H](C(C)C)NC1=O (single isomer, unassigned) [Kahalalide F, kahalalide F]
- KF in solution after reconstitution and further dilution [1]: kept KF in solution
- LD50 [2]: 5 mM
- LD50 [3]: 0.6 mM
- CC50 [4]: 0.17 µM
- CC50 [5]: 1.6 µM
- CC50 [6]: 14 µM
- toxicity to astrocytes [7]: spares
- concentration toxic to CNS neurons [8]: ~10 µM
- toxicity to motor neurons [9]: spares
- toxicity to sensory neurons [10]: spares
- MTD [11]: 300 μg/kg BW
- IC50 (PC-3): 0.27 µM
- IC50 (DU-145): 0.25 µM
- IC50 (T-10): 0.73 µM
- IC50 (DHM): 0.24 µM
- IC50 (RB): 0.19 µM
- IC50 (SK-BR-3): 2.5 µM
- IC50 (BT-474): 2 µM
- IC50 (BE(2)C): 1 µM
- schedule dependence of cytotoxicity [12]: not schedule-dependent
- specimens with in vitro response (50% survival) ([13]; 0.01 μg/M): 16%
- specimens with in vitro response (50% survival) ([13]; 0.1 μg/M): 19%
- specimens with in vitro response (50% survival) ([13]; 1.0 μg/M): 81%
- maximum plasma concentrations ([14]; 320 μg/m2/day): 35 to 50 ng/mL
- relationship between dose and AUC ([14]; i.v. infusion over one hour, 20-320 μg/m2/day, patients): linear relationship
- drug related toxicity ([15]; 320 μg/m2/day, rapidly reversible): CTC grade 3 ASAT
- tolerability of schedule ([15]; one hour infusion, five consecutive days every three weeks): well tolerated
- maximum tolerated dose ([15]; up to 320 μg/m2/day, study ongoing): has not been reached yet
- cytotoxicity [16]: cytotoxic
- cytotoxicity (prostate carcinoma cells): cytotoxic
- stability of infusion solutions [17]: at least 5 days
- cytotoxicity ([18]; CHSAs): cytotoxic
- exposure time eliciting a cytotoxic effect ([18]; cells not specified further in the sentence): 10 min
- cytotoxicity (osteosarcomas, OSAs): cytotoxic
